Source: patent US8236789B2, “1-adamantyl azetidin-2-one derivatives and drugs containing same” (Kowa Company, Ltd., priority 2008, dated 2012)

Columns and labels:
Type in all cases: biochemical
[1] = biological target: T1, human 11β-HSD1 (Homo sapiens, UniProt P28845); test: Enzyme inhibitory activity assay, lysate of HEK293 cells stably expressing human 11β-HSD1, cortisol by competitive ELISA; conditions: Table 1; cell lysate, 100 nmol/L cortisone, NADPH, 37° C. 1 hour; read-out: in vitro assay (IC50 uM) h HSD1
T1 construct: expressed in transfected cells
T1 sequence (P28845 whole entry): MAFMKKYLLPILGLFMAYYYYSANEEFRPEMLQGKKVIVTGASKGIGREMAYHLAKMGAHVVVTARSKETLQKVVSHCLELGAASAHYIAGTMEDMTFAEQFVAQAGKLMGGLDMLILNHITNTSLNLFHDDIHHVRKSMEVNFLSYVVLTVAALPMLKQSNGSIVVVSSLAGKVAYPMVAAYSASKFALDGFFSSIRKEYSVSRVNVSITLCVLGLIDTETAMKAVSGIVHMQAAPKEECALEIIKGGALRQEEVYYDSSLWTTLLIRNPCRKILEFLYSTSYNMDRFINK
Procedure: (§1) 1. Human 11β-HSD1-, Human 11β-HSD2- and Mouse 11β-HSD1-Gene Clonings and Establishment of Stably Expressing Cells
(§2) Human 11β-HSD1- and human 11β-HSD2-expressing vectors were transfected into human kidney-derived cell line, HEK293 cells, using a transfection reagent, jet PEI (Funakoshi). Mouse 11β-HSD1 was transfected to Chinese hamster ovary-derived cell line, CHO-K1 cells. Selection was conducted with 200-400 μg/mL of zeocine (Invitrogen) to provide stably expressing-cell clones. The stably expressing cells were suspended in buffer solution A (20 mmol/L Tris-HCl, pH 7.4, 250 mmol/L sucrose, 1 mmol/L EGTA, 1 mmol/L EDTA, 1 mmol/L MgCl2), sonicated, and then stored at −80° C.
(§3) 2. Assay of Enzyme Inhibitory Activity
(§4) An enzymatic reaction was conducted using a polystyrene 96-well plate. Each well was added with 1 μL of a test agent dissolved in DMSO and then diluted (0.003 to 3 mmol/L), and further added with 10 μL of cell lysate diluted to a concentration of 0.1 mg/mL to 0.4 mg/mL. Next, 90 μL of buffer solution A containing substrate (100 nmol/L cortisone or cortisol) and coenzyme (400 μmol/L NADPH or NAD+) was added and the mixture was incubated at 37° C. for 1 hour. The enzymatic reaction was stopped by treating at 95° C. for 3 minutes. Cortisol that was present in the reaction solution was determined by a competitive ELISA shown below.
(§5) Anti-rabbit IgG antibody (Chemi-con) diluted to 2 μg/mL with carbonate buffer solution (pH 9.6) was added in 100 μL each to a 96-well immuno plate (Nunc) and immobilized by an incubation at 4° C. overnight. […] After washed three times with buffer solution B containing 0.05% Tween 20, the plates were allowed to develop color by adding 100 μL, of color reagent, TMB (Moss). The color reaction was stopped by 25 μL of 1 mol/L sulfuric acid and the absorbance was determined at 450 nm with a microplate reader (Molecular Device, VersaMax).

[2] = biological target: T2, human 11β-HSD2 (Homo sapiens, UniProt P80365); test: Enzyme inhibitory activity assay, lysate of HEK293 cells stably expressing human 11β-HSD2, cortisol by competitive ELISA; conditions: Table 1; cell lysate, 100 nmol/L cortisol, NAD+, 37° C. 1 hour; read-out: in vitro assay (IC50 uM) h HSD2
T2 construct: expressed in transfected cells
T2 sequence (P80365 1-405): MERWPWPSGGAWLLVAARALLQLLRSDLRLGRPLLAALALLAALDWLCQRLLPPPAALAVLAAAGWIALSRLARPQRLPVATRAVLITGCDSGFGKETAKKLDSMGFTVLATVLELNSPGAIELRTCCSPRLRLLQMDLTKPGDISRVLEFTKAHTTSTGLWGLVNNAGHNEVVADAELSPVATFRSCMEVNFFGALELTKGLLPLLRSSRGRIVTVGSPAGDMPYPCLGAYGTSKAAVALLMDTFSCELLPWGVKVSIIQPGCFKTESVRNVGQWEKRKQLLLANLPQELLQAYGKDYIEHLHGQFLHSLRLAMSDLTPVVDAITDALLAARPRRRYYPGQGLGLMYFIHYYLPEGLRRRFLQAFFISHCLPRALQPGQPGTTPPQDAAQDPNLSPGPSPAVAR
Procedure: as §1
Human 11β-HSD1-, human 11β-HSD2-, and mouse 11β-HSD1-gene clonings were conducted using as a template a reverse transcription product of human-liver RNA, human-kidney RNA (CELL APPLICATIONS), and mouse-kidney RNA respectively, by means of PCR cloning with reference to nucleotide sequences of Genbank Accession Nos. NM_005525, NM_000196, and NM_008288. The obtained PCR products of about 0.9 kbp, 1.2 kbp, and 0.9 kbp were subcloned into an expression vector pcDNA3.1+/Zeo (Invitrogen).
as §2, §3, §4
Anti-rabbit IgG antibody (Chemi-con) diluted to 2 μg/mL with carbonate buffer solution (pH 9.6) was added in 100 μL each to a 96-well immuno plate (Nunc) and immobilized by an incubation at 4° C. overnight. 50 μL of enzymatic reaction solution was put onto the plates, and further, anti-cortisol antibody (Cosmo Bio) and HRP-labeled cortisol (Cosmo Bio), diluted with buffer solution B (25 mmol/L Tris-HCl pH 7.4, 137 mmol/L NaCl, 2.68 mmol/L KCl), were added in 50 μL respectively and incubated at 4° C. overnight. After washed three times with buffer solution B containing 0.05% Tween 20, the plates were allowed to develop color by adding 100 μL, of color reagent, TMB (Moss). The color reaction was stopped by 25 μL of 1 mol/L sulfuric acid and the absorbance was determined at 450 nm with a microplate reader (Molecular Device, VersaMax).
The values of human 11β-HSD1, human 11β-HSD2, and mouse 11β-HSD1 activities were subtracted from 100, and the resultant values were regarded as the respective 11βHSD inhibition rates of example compounds. […] The comparison of human 11β-HSD1 and human 11β-HSD2 inhibiting activities is shown in Table 1, and the comparison of human 11β-HSD1 and mouse 11β-HSD1 inhibiting activities is shown in Table 2.

[3] = biological target: T3, mouse 11β-HSD1 (Mus musculus, UniProt P50172); test: Enzyme inhibitory activity assay, lysate of CHO-K1 cells stably expressing mouse 11β-HSD1, cortisol by competitive ELISA; conditions: Table 2; cell lysate, 100 nmol/L cortisone, NADPH, 37° C. 1 hour; read-out: in vitro assay (IC50 uM) m HSD1
T3 construct: expressed in transfected cells
T3 sequence (P50172 whole entry): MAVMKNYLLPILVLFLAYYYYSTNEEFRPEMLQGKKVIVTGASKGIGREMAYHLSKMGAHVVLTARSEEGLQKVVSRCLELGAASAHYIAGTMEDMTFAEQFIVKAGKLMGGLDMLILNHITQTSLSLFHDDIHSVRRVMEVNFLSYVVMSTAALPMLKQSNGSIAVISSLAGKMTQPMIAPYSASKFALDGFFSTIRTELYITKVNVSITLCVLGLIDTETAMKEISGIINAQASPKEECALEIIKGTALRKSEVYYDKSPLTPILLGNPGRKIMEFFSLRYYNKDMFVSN
Procedure: as §1, §2, §3, §4, §5

IC50 [1] | IC50 [2] | IC50 [3] | Structure (SMILES)
0.11 µM | 4.1 µM | 0.0078 µM | CC1(C)C(=O)N(C2C3CC4CC(C3)CC2C4)C1C1(c2ccc(Cl)cc2)CC1 (stereo not drawn) [Example 70, 4-[1-(4-chlorophenyl)cyclopropyl]-1-(adamantan-2-yl)-3,3-dimethylazetidin-2-one]
0.059 µM | 4.3 µM | 0.0061 µM | CC1(C)C(=O)N(C2C3CC4CC(C3)CC2C4)C1C1(c2ccccc2)CC1 (stereo not drawn) [Example 71, 1-(adamantan-2-yl)-3,3-dimethyl-4-(1-phenylcyclopropyl)azetidin-2-one]
